From publication PMC10279920, “Single-molecule visualization of Pif1 helicase translocation on single-stranded DNA” (The Journal of Biological Chemistry, 2023)
Substitutions are numbered along the chain they refer to.

T1: GFP-Pif1 (Saccharomyces cerevisiae, UniProt P07271, E724A)
T1 construct: N-terminal superfolder GFP fusion of nuclear isoform residues 40-859, pRSF-Duet-1, E. coli Rosetta2(DE3), Ni-NTA purified
T1 sequence (P07271 40-859 E724A): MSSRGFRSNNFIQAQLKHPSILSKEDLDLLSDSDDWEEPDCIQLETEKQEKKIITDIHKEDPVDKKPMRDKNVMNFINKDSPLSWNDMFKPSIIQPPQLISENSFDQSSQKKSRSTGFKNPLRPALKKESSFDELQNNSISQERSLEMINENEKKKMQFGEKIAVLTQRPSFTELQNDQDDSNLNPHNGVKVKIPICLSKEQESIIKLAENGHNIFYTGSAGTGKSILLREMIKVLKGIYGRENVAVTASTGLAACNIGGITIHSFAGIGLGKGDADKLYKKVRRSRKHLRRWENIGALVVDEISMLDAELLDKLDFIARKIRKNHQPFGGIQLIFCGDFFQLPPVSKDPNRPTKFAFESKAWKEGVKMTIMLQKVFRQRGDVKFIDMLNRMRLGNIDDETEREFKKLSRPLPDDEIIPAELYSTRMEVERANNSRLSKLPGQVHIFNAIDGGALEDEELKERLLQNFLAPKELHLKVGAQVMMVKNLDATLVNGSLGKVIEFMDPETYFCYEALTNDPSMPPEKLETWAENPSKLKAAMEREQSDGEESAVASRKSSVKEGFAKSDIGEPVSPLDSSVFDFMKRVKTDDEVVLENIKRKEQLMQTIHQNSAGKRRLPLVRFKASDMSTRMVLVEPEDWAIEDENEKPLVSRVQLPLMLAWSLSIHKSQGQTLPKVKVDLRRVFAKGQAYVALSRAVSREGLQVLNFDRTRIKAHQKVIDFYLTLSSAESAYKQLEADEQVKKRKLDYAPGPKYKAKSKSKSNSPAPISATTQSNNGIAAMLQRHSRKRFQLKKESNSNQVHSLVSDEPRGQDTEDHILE

T2: GFP-Pif1 (Saccharomyces cerevisiae, UniProt P07271, K387A)
T2 construct: N-terminal superfolder GFP fusion of nuclear isoform residues 40-859, pRSF-Duet-1, E. coli Rosetta2(DE3), Ni-NTA purified
T2 sequence (P07271 40-859 K387A): T1 sequence (P07271 40-859 E724A) with K348A, A685E

T3: GFP-Pif1 (Saccharomyces cerevisiae, UniProt P07271, T301A)
T3 construct: N-terminal superfolder GFP fusion of nuclear isoform residues 40-859, pRSF-Duet-1, E. coli Rosetta2(DE3), Ni-NTA purified
T3 sequence (P07271 40-859 T301A): T1 sequence (P07271 40-859 E724A) with T262A, A685E

T4: GFP-Pif1 T301A (Saccharomyces cerevisiae, UniProt P07271 40-859, T301A)
T4 sequence: T1 sequence (P07271 40-859 E724A) with T262A, A685E


How the values were obtained:
GFP-Pif1 [1] = biological target: T1, GFP-Pif1; assay: ATP hydrolysis, [γ-32P]-ATP TLC, Michaelis-Menten fit; assay type: biochemical; details: M13 ssDNA 1.5 μM nt, 10 nM Pif1, 5 mM MgCl2, 60 mM KCl, pH 7.5, 30 °C, no RPA; labelled compound as tracer
Description: ATP hydrolysis, [γ-32P]-ATP TLC, Michaelis-Menten fit on GFP-Pif1 | each of the mutant proteins was tested for ATPase activity

GFP-Pif1 [2] = biological target: T2, GFP-Pif1; assay: as above; assay type: biochemical; details: M13 ssDNA 1.5 μM nt, 10 nM Pif1, 5 mM MgCl2, 60 mM KCl, pH 7.5, 30 °C, no RPA; labelled compound as tracer
GFP-Pif1 [3] = biological target: T3, GFP-Pif1; assay: as above; assay type: biochemical; details: M13 ssDNA 1.5 μM nt, 10 nM Pif1, 5 mM MgCl2, 60 mM KCl, pH 7.5, 30 °C, no RPA; labelled compound as tracer
GFP-Pif1 T301A = biological target: T4, GFP-Pif1 T301A; assay: EMSA; no ATP, 5 mM Mg2+; up to 50 nM; 35 mM Tris-HCl pH 7.5, 1 mM DTT, 5 mM MgCl2, 60 mM KCl, 0.1 mg/ml BSA, no ATP, 30 min at 30 C; 5 nM ssDNA; details: protein: recombinant; tags: N-terminal superfolder GFP; Ni-NTA purified; label: 5' Alexa647

Molecule | Km (GFP-Pif1 [1]) [µM] | Km (GFP-Pif1 [2]) [µM] | Km (GFP-Pif1 [3]) [µM] | binding result (GFP-Pif1 T301A)
Nc1ncnc2c1ncn2[C@@H]1O[C@H](COP(=O)(O)OP(=O)(O)OP(=O)(O)O)[C@@H](O)[C@H]1O [ATP] | 1470 ± 1370 | 540 ± 290 | 1000 ± 830 | –
GCTAGCAGTAGCCAGCATCGAACGTACGATCGGTAACGTA (ssDNA) [40-nt ssDNA] | – | – | – | no binding
